{"source": "patent US20250034194A1", "about": "“INHIBITORS OF ABNORMAL PHOSPHORYLATION AND TAU PROTEIN AGGREGATION” (UNIVERSITE DE PICARDIE JULES VERNE, priority 2021, published 2025)", "key": {"[1]": {"system": "SH-SY5Y", "experiment": "Cytotoxicity study, MTT test", "type": "cell-based", "details": "differentiated SH-SY5Y; 0.1 to 100 μg/mL; 24 hours", "experimental": "In order to evaluate the level of toxicity of these molecules according to their concentration in the cellular environment, an MTT test (3-(4,5-dimethylthiazol-2-yl)-2,5-diphenyl tetrazolium bromide) is carried out (FIGS. 11 and 12) upstream of the phosphorylation tests in cellulo.\nSH-SY5Y (ATCC-CRL-2266) are developed in Dulbecco's Modified Eagle Complete Medium (DMEM-GlutaMAX™, Life Technologies) with 10% foetal bovine serum (FBS) and 1% penicillin/streptomycin in an incubator at 37° C. with 5% CO2.\nFor this, the SH-SY5Y cells are cultured in a 6-well plate at a cell density of 200,000 cells/well and are differentiated using retinoic acid (10 μM, Sigma Aldrich) for 5 days. On day 6, the cells are brought into contact with LG2A molecules at different concentrations (0.1, 1, 10 or 100 μg/mL), in a final volume of 2 mL. After 24 hours, MTT (5 μg/mL; Sigma-Aldrich) is added to the cell medium for 2 hours at 37° C. Then the medium is removed and 200 μL of pure dimethylsulfoxide (DMSO, Sigma-Aldrich) are added to each well. The entire contents of each well are transferred to a 96-well plate and the absorbance is measured at 562 nm using the Infinite M1000 spectrofluorometer (Tecan)."}, "[2]": {"target": "T1, tau protein (4R2N, 441 amino acids) (Homo sapiens, UniProt P10636)", "T1 construct": "purchased Millipore (tau); Promega (GSK3β)", "T1 sequence (P10636 1-441 isoform P10636-8)": "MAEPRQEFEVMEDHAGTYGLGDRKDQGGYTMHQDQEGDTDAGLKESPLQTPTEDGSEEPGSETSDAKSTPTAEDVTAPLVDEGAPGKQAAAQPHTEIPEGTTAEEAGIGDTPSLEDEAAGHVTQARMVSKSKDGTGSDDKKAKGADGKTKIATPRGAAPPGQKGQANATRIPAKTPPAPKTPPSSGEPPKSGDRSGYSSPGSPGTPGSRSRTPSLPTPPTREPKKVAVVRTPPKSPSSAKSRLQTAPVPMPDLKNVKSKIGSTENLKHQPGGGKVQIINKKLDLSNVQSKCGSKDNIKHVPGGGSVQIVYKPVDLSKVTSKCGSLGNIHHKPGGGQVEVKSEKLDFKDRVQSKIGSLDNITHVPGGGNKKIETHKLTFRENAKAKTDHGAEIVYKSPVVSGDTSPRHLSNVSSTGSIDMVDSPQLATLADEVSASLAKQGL", "experiment": "In vitro abnormal tau phosphorylation by GSK3β, competition with heparin (western blot)", "type": "biochemical", "excerpt": "Phosphorylation of tau protein is the most common post-translational modification to regulate tau activity and functions. The longest tau isoform (4R2N, 441 amino acids) containing 85 potential phosphorylation sites was used. In vitro phosphorylation of the tau protein is done by induction, on the one hand, (FIG. 5) and, on the other hand, according to a competition process between the LG2A molecules and heparin, conventionally used to induce abnormal tau phosphorylation in vitro (FIGS. 3, 4, 6, 7, 8, 9 and 10).\nFor abnormal tau phosphorylation tests, GSK3p, a kinase centrally involved in this process in the brains of subjects with Alzheimer's disease (AD), was used. Analysis of tau phosphorylation by GSK3b at sites characteristic of AD is possible by the western blot technique using specific antibodies that recognize abnormally phosphorylated sites in the brain or cerebrospinal fluid of AD subjects, such as the AT270 antibody which recognizes threonine 181 (Thr181), the PHF1 antibody which recognizes serines 396 and 404 (Ser396/Ser404), and the AT8 antibody, which recognizes the Ser199/Ser202/Thr205 site.\nBy competition: The tau protein (40 μg/mL) is phosphorylated by the GSK3β enzyme at 4 ng/mL (Promega) in the presence of ATP (Sigma-Aldrich) at 48 μM and protease inhibitors (Sigma-Aldrich, 1/100), in the buffer mentioned above. The ability of the LG2A molecules (60 μg/mL) to compete with heparin (12 μg/mL; Sigma-Aldrich) is evaluated. Thus if the signal in the presence of the molecules is less than that obtained with heparin alone, the molecules are then defined as “protectors” from abnormal tau phosphorylation.\nIn both systems (induction or competition), the tau protein is incubated at 37° C. with stirring in the presence of the different elements presented above. The reaction kinetics are monitored by taking 8 μL of the samples at 1.5 h, 3 h and 6 h of incubation. Loading buffer (Euromedex) and β-mercaptoethanol (Sigma-Aldrich) are added to each sample. The samples are then stored at −20° C. until analysis by western blot.\nAfter denaturation of the samples by heating at 95° C. for 5 minutes, the samples are deposited simultaneously with the molecular weight marker (Precision Plus Protein™ Dual Color Standards; BIO-RAD) on a 10% acrylamide gel placed in an electrophoresis tank containing migration buffer (0.25 M Tris; 1.6 M Glycine; […]; pH 8.6).\nThe controls used for this phosphorylation experiment followed by western blot are: • the “native tau” protein, that is to say the non-phosphorylated tau protein. • the tau protein phosphorylated by GSK3b alone in the absence of heparin. • the tau protein phosphorylated in the presence of heparin, denoted “tau+heparin”. • the “external standard” corresponding to the tau protein phosphorylated in the presence of heparin for 3 h. This standard is carried out in an experiment independently of the phosphorylation experiments in the presence of LG2A compounds. It ensures that the western blot is carried out correctly.\nThen the membrane is incubated overnight with stirring at +4° C. in a solution of PBS, 0.1% Tween and 1% milk containing the primary antibody specific for tau phosphorylation sites (AT270, ThermoScientific or S199-202, Millipore).\nAfter incubation of the PVDF membrane in the chosen primary antibody, a succession of 3 washes of 5 minutes of the membrane is carried out in PBS and 0.1% Tween with stirring and the membrane is incubated for 1 h with stirring at room temperature in a solution of 1×PBS, 0.1% Tween and 1% milk containing the diluted secondary antibody (Jackson Immuno-Research)."}}, "data": [{"smiles": "CCCCCCCCCCCCCCCCNC(=O)[C@H](O)[C@@H](O)[C@H](O[C@H]1OC(COS(=O)(=O)[O-])[C@@H](O)C(O)[C@@H]1O)[C@H](O)COS(=O)(=O)[O-].[Na+].[Na+]", "note": "(stereo partly drawn) [Mal16diS, N-Hexadecyl-6,6′-Di-O-Sulfo-D-Maltobioamide Disodium]", "values": [{"measurement": "cytotoxicity (MTT)", "setting": "[1]", "result": "not cytotoxic"}, {"measurement": "abnormal phosphorylation of tau (p-tau) revealed by AT270 and Ser199/202 antibodies", "setting": "[2]; in presence of heparin, after 3 h of reaction", "result": "inhibited"}, {"measurement": "ability to compete with heparin for abnormal tau phosphorylation by GSK3β", "setting": "[2]; molecule 60 μg/mL vs heparin 12 μg/mL, 1.5 to 6 h of reaction, AT270, Ser199/202", "result": "total competition with heparin"}]}]}
